A value given as a limit tells only on which side of the number the result lay.

The source of these data is article PMC12588666 (Therapeutic Drug Monitoring, 2025).

Data set [1] concerns P. mirabilis. In words: Susceptibility of intraoperative culture isolate, P. mirabilis (case 1). Type of data set: cell-based, Proteus mirabilis. The conditions noted are these: case 1 intraoperative culture. How it is done:
(§1) Case 1: A patient (102.5 kg, creatinine clearance of 71 mL/min based on a 6-hour urine collection) developed a polymicrobial implant-associated spinal infection (IASI) after Th9-L3 spondylodesis and laminectomy at Th12. […] Surgical debridement was performed before dalbavancin therapy.
(§2) Intravenous vancomycin and ceftriaxone were initiated to treat S. aureus, P. mirabilis, and E. faecium. S. aureus was susceptible to both agents, P. mirabilis to ceftriaxone, and E. faecium to vancomycin. After 1 week, ceftriaxone was switched to oral ciprofloxacin.

For data set [2], the system named is S. aureus. The data set can be described thus: Susceptibility of intraoperative culture isolate, S. aureus (case 1). To be noted: case 1 intraoperative culture. Type of data set: cell-based, Staphylococcus aureus. How it is done: as §1, §2
Data set [3] concerns implant-associated spinal infection (IASI). The data set can be described thus: Clinical outcome and tolerability in patients with implant-associated spinal infection. How it is done: The total duration of the antimicrobial treatment was 12 weeks. Creatinine levels remained stable.
Symptoms resolved within 2.5 hours after 1-mg oral clemastine (antihistamine) and was discharged.

For data set [4] the following is noted: long half-life; cited from earlier work.
Data set [5] relates to E. faecium. To be noted: Clinical and Laboratory Standards Institute; cited from earlier work. From the text: (§3) The Clinical and Laboratory Standards Institute has defined a tentative susceptibility breakpoint o ...
Data set [6] has as its system S. aureus. To be noted: in vivo; cited from earlier work.
Text: as §3

A short description of data set [7]: Dalbavancin plasma concentrations by LC-MS/MS (TDM, case 1). Format: in vivo, human. From the text:
Background: Implant-associated spinal infections (IASI) pose challenges for outpatient management due to the need for frequent intravenous antibiotic administration. […] One patient received therapeutic drug monitoring (TDM)-guided dosing, while the other was managed with fixed-interval dosing. […] Both patients successfully completed therapy without recurrence of the infection during follow-up. […] Further research is required to establish standardized therapeutic drug monitoring protocols for the management of IASI.
The second 1500 mg dose followed on day 8, with TDM on days 22 and 28.

The test system of data set [8] is E. faecium. In words: Susceptibility of intraoperative culture isolate, E. faecium (case 1). Type of data set: cell-based, Enterococcus faecium. To be noted: case 1 intraoperative culture. How it is done: as §1, §2

As to `CO/N=C(\C(=O)N[C@@H]1C(=O)N2C(C(=O)O)=C(CSc3nc(=O)c(=O)[nH]n3C)CS[C@H]12)c1csc(N)n1` [ceftriaxone], in data set [1], the “susceptibility of P. mirabilis” value is “susceptible”. Also, in data set [2], the “susceptibility of S. aureus” value is “susceptible”.

Turning to `CN[C@H]1C(=O)N[C@@H]2Cc3ccc(cc3)Oc3cc4cc(c3O[C@@H]3O[C@H](C(=O)O)[C@@H](O)[C@H](O)[C@H]3NC(=O)CCCCCCCCC(C)C)Oc3ccc(cc3Cl)[C@@H](O)[C@@H]3NC(=O)[C@H](NC(=O)[C@@H]4NC(=O)[C@@H](NC2=O)c2cc(cc(O)c2Cl)Oc2cc1ccc2O)c1ccc(O)c(c1)-c1c(O[C@H]2O[C@H](CO)[C@@H](O)[C@H](O)[C@@H]2O)cc(O)cc1[C@@H](C(=O)NCCCN(C)C)NC3=O` [dalbavancin], the “infection recurrence at follow-up” value in data set [3] (both patients (case 1 TDM-guided three doses, case 2 fixed-interval four doses of 1500 mg)) is “without infection recurrence up to 8 months after therapy”. Also, the “blood, renal, and liver tests” value in data set [3] (case 2) was “remained normal”. In addition, the “adverse reaction after the final dose” value in data set [3] (case 2, 85 kg, 4 off-label 1500-mg doses every 2 weeks without TDM) was “nausea, vomited once, and had a painful, itchy, erythematous, and swollen face”. The severity of reaction entry in data set [3] (case 2, possibly due to the infusion) was “moderate reaction”. For the same molecule, the half-life in data set [4] was 147 to 258 h. In addition, the tentative susceptibility breakpoint in data set [5] is given as 0.25 mg/L. Further, the “trough concentration corresponding to the ƒAUC24/MIC target” value in data set [6] was no less than 8 µg/mL. In addition, the “trough concentration before the third dalbavancin infusion” value in data set [7] (case 1, 102.5 kg, CrCl 71 mL/min, after 1500 mg doses on day 1 and day 8, single patient) worked out at 10.3 mg/L. For the same molecule, in data set [7] (case 1, third 1500-mg dose on day 44, single patient), the “peak plasma concentration after the third dalbavancin infusion” value was 301.8 mg/L.

`CN[C@H](CC(C)C)C(=O)N[C@H]1C(=O)N[C@@H](CC(N)=O)C(=O)N[C@H]2C(=O)N[C@H]3C(=O)N[C@H](C(=O)N[C@H](C(=O)O)c4cc(O)cc(O)c4-c4cc3ccc4O)[C@H](O)c3ccc(c(Cl)c3)Oc3cc2cc(c3O[C@@H]2O[C@H](CO)[C@@H](O)[C@H](O)[C@H]2O[C@H]2C[C@](C)(N)[C@H](O)[C@H](C)O2)Oc2ccc(cc2Cl)[C@H]1O` [vancomycin]: the “susceptibility of E. faecium” value in data set [8] is listed as “susceptible”. Also, in data set [2], the “susceptibility of S. aureus” value was “susceptible”.

As usually defined, the half-life is the time in which the quantity being followed falls by half.
